# Target: T1, enzyme alcohol dehydrogenase (Saccharomyces cerevisiae, UniProt P00330)
# T1 construct: purchased Sigma Diagnostics 333-B
# T1 sequence (P00330 1-348): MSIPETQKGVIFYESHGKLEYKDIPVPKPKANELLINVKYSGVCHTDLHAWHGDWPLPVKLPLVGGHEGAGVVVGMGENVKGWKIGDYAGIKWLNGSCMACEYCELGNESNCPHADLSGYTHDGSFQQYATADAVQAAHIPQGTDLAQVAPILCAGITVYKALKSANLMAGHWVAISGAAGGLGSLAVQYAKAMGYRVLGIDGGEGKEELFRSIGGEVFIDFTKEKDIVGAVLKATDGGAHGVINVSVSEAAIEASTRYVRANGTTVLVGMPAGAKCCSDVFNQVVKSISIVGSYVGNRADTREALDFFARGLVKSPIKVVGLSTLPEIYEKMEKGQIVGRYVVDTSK
# Test: Test of inhibition of the activity of the enzyme alcohol dehydrogenase (Sigma Diagnostics kit ref. 333-B)
# Type: biochemical
# Settings: inhibitor 10^-3 M in the final mixture; 10 μl ethanol solution 0.08% w/v; incubated 10 minutes at room temperature; reference = 100
# Experimental: Test of Inhibition of the Activity of the Enzyme Alcohol Dehydrogenase
# The inhibition of the activity of the enzyme alcohol dehydrogenase was determined using a Sigma Diagnostics kit (ref. 333-B).
# 3 ml of the Alcohol Reagent, 10 μl of ethanol solution (0.08% ethanol w/v ref. 330-20) and 10 μl of inhibitor solution in distilled water are incubated for 10 minutes at room temperature.
# For each assay, a blank consisting of 3 ml of the Alcohol Reagent, 10 μl of distilled water and 10 μl of inhibitor solution in distilled water is prepared.
# The inhibitors are diluted so as to be at a concentration of 10^−3 M in the final mixture.
# After incubation of the mixture, 100 μl are taken up and read over a 10-minute interval at 340 nm. The readings are performed in 96-well UV microplates using a UV-visible multiwell spectrophotometer (Spectramax Plus—Molecular Devices) against the blank.
# The inhibition results are expressed as a percentage of absorbance at 340 nm relative to a reference (no inhibitor in the mixture): […]
row,percentage of absorbance at 340 nm relative to a reference (no inhibitor in the mixture) [%],SMILES
1,35,Cc1cn[nH]c1 [4-Methylpyrazole]
2,32,c1c[nH]cn1 [Imidazole]
3,16,c1cn[nH]c1 [Pyrazole]

row,SMILES,percentage of absorbance at 340 nm relative to a reference (no inhibitor in the mixture) [%]
1,"OCC(Cl)(Cl)Cl [2,2,2-Trichloroethanol]",-12
2,"CCn1nc(C)c(N)c1N [2-Ethyl-5-methyl-2H-3,4-diaminopyracole]",31

# — patent US20030138390A1, “Use of alcohol dehydrogenase inhibitors for cosmetic treatment of keratinous materials” (priority 2000, published 2003)
